# From ChEMBL document CHEMBL4507297, “Data for DCP probe PF-04457845” (2021)
# What was measured:
# [1] = biological target: Serine/threonine-protein kinase PRP4 homolog (Homo sapiens) (UniProt Q13523); conditions: Compound concentration 1000.0 nM
# [2] = biological target: Interferon-induced, double-stranded RNA-activated protein kinase (Homo sapiens) (UniProt P19525); conditions: Compound concentration 1000.0 nM
# [3] = biological target: Aurora kinase C (Homo sapiens) (UniProt Q9UQB9); conditions: Compound concentration 1000.0 nM
# [4] = biological target: Serine/threonine-protein kinase 38 (Homo sapiens) (UniProt Q15208); conditions: Compound concentration 1000.0 nM
# [5] = biological target: Phosphatidylinositol 4-phosphate 5-kinase type-1 alpha (Homo sapiens) (UniProt Q99755); conditions: Compound concentration 1000.0 nM
# [6] = biological target: Dual specificity mitogen-activated protein kinase kinase 1 (Homo sapiens) (UniProt Q02750); conditions: Compound concentration 1000.0 nM
# [7] = system: Phosphatidylinositol 4,5-bisphosphate 3-kinase catalytic subunit alpha isoform (Homo sapiens), P42336 [I800L]; conditions: Compound concentration 1000.0 nM
# Phosphatidylinositol 4,5-bisphosphate 3-kinase catalytic subunit alpha isoform (Homo sapiens), P42336 [I800L], sequence (P42336 whole entry I800L, canonical isoform): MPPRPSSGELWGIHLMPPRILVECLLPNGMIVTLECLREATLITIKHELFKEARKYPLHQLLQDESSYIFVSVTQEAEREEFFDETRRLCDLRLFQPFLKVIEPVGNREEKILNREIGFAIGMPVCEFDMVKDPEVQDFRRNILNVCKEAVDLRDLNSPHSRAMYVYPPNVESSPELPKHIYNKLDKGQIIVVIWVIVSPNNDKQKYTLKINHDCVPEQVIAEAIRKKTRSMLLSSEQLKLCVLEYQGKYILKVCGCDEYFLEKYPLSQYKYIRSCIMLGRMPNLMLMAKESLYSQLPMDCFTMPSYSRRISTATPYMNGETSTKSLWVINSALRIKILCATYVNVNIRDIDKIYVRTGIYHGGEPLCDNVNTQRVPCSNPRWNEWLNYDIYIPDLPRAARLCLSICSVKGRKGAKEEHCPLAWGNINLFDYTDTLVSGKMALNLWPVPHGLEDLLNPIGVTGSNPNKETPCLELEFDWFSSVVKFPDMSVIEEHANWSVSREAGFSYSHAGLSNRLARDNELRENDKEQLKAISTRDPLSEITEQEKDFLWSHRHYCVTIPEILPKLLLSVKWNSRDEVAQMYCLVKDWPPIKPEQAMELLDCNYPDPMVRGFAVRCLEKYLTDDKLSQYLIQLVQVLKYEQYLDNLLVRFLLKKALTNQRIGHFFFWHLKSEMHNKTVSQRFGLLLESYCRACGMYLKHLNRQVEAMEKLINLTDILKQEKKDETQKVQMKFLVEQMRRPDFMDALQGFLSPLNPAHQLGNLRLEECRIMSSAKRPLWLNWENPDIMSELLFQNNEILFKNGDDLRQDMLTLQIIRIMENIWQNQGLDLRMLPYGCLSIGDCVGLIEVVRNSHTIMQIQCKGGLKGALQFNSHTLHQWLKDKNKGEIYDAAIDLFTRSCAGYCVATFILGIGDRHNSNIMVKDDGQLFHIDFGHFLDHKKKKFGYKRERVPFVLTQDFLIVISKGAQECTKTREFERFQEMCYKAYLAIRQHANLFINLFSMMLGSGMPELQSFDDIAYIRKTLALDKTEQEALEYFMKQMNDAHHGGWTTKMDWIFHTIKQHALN
# [8] = biological target: Tyrosine-protein kinase Blk (Homo sapiens) (UniProt P51451); conditions: Compound concentration 1000.0 nM
# [9] = system: Phosphatidylinositol 4,5-bisphosphate 3-kinase catalytic subunit alpha isoform (Homo sapiens), P42336 [M1043I]; conditions: Compound concentration 1000.0 nM
# [10] = biological target: Serine/threonine-protein kinase 32B (Homo sapiens) (UniProt Q9NY57); conditions: Compound concentration 1000.0 nM
# Serine/threonine-protein kinase 32B (Homo sapiens), sequence (Q9NY57 whole entry): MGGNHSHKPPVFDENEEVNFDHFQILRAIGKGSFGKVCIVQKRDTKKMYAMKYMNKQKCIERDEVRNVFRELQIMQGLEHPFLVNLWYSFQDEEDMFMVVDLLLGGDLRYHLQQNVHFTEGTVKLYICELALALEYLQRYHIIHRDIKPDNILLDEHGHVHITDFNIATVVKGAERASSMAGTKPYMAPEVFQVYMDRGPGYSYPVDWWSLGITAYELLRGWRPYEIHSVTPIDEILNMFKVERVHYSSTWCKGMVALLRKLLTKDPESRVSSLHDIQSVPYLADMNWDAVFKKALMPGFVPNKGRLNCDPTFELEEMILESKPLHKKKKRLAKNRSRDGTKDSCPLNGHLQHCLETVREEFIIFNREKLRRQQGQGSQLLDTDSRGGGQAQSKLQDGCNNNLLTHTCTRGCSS
# [11] = biological target: TGF-beta receptor type-2 (Homo sapiens) (UniProt P37173); conditions: Compound concentration 1000.0 nM
# TGF-beta receptor type-2 (Homo sapiens), sequence (P37173 whole entry): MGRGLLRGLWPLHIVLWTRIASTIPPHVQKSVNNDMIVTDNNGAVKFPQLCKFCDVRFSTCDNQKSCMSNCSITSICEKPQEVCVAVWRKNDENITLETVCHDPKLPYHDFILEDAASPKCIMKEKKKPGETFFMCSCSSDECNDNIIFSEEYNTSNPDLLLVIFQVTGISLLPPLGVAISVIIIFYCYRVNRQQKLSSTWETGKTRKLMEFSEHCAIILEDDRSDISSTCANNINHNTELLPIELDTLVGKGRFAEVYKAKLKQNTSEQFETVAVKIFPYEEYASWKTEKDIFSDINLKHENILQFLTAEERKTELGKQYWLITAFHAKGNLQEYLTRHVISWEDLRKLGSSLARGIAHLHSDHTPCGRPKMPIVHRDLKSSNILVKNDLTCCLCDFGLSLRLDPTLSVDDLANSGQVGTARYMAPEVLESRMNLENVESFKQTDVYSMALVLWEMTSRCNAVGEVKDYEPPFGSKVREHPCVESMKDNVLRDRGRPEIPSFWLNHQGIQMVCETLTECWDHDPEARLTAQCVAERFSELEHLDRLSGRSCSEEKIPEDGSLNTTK
# [12] = biological target: Serine/threonine-protein kinase TAO1 (Homo sapiens) (UniProt Q7L7X3); conditions: Compound concentration 1000.0 nM
# [13] = system: Receptor-type tyrosine-protein kinase FLT3 (Homo sapiens), P36888 [D835H]; conditions: Compound concentration 1000.0 nM
# [14] = system: ALK tyrosine kinase receptor (Homo sapiens), Q9UM73 [C1156Y]; conditions: Compound concentration 1000.0 nM
# [15] = biological target: Tyrosine-protein kinase Tec (Homo sapiens) (UniProt P42680); conditions: Compound concentration 1000.0 nM
# [16] = biological target: Tyrosine-protein kinase Lck (Homo sapiens) (UniProt P06239); conditions: Compound concentration 1000.0 nM
# [17] = biological target: Cyclin-dependent kinase 14 (Homo sapiens) (UniProt O94921); conditions: Compound concentration 1000.0 nM
# [18] = biological target: Mitogen-activated protein kinase kinase kinase 6 (Homo sapiens) (UniProt O95382); conditions: Compound concentration 1000.0 nM
# [19] = biological target: Serine/threonine-protein kinase Nek11 (Homo sapiens) (UniProt Q8NG66); conditions: Compound concentration 1000.0 nM
# Serine/threonine-protein kinase Nek11 (Homo sapiens), sequence (Q8NG66 whole entry): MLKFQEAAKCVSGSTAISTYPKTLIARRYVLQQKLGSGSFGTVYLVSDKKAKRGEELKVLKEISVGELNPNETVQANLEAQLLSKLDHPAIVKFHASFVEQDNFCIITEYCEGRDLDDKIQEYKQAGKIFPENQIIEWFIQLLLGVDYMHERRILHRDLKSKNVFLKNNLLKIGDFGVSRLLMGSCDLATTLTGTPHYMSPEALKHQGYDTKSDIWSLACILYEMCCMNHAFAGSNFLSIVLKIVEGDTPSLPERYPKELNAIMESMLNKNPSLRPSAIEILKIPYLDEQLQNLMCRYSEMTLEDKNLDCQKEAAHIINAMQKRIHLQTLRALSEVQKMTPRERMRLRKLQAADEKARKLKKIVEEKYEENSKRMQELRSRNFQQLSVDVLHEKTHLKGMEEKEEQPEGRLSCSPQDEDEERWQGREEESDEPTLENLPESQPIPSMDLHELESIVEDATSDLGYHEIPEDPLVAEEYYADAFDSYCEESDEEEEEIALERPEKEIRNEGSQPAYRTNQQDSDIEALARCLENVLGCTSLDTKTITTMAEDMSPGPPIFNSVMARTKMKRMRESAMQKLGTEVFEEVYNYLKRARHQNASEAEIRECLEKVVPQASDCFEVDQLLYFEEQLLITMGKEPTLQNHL
# [20] = biological target: T1, 5-hydroxytryptamine receptor 2C (Homo sapiens) (UniProt P28335); conditions: Compound concentration 10.0 uM
# T1 sequence (whole entry): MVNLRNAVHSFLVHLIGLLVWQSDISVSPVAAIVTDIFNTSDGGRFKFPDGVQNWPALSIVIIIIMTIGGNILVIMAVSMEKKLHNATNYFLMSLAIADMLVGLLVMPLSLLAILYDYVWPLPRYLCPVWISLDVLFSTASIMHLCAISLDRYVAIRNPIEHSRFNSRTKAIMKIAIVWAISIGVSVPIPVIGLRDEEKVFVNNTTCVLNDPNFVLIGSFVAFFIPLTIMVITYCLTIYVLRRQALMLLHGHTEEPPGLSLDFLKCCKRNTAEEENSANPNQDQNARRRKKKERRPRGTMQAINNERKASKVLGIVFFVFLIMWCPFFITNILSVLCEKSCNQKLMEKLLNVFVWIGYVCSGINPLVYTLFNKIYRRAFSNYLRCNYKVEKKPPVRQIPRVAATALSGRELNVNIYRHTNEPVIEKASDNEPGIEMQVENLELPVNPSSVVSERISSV
# [21] = biological target: Leukocyte tyrosine kinase receptor (Homo sapiens) (UniProt P29376); conditions: Compound concentration 1000.0 nM
# [22] = system: Mast/stem cell growth factor receptor Kit (Homo sapiens), P10721 [D816V]; conditions: Compound concentration 1000.0 nM
# [23] = biological target: Serine/threonine-protein kinase DCLK1 (Homo sapiens) (UniProt O15075); conditions: Compound concentration 1000.0 nM
# [24] = biological target: Ribosomal protein S6 kinase alpha-4 (Homo sapiens) (UniProt O75676); conditions: Compound concentration 1000.0 nM
# Ribosomal protein S6 kinase alpha-4 (Homo sapiens), sequence (O75676 whole entry, looked up): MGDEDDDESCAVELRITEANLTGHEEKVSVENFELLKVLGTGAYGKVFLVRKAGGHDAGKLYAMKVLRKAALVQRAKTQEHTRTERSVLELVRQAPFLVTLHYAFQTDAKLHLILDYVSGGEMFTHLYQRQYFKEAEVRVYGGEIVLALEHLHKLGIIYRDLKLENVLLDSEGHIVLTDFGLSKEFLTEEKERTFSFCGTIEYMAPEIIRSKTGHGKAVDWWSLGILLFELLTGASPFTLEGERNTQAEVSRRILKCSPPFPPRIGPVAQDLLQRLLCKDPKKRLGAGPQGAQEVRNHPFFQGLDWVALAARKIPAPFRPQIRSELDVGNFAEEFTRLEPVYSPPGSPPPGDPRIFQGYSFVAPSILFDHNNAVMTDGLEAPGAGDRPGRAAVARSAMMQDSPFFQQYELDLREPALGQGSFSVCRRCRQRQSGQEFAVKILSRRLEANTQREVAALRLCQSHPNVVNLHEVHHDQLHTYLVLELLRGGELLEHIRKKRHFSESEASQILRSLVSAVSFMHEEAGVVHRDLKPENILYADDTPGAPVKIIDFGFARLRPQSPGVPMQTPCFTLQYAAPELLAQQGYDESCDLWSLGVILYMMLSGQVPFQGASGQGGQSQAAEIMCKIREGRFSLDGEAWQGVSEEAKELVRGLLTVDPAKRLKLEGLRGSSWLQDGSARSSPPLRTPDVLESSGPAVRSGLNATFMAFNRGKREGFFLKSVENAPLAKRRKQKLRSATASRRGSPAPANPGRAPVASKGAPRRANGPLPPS
# [25] = biological target: Tyrosine-protein kinase Fer (Homo sapiens) (UniProt P16591); conditions: Compound concentration 1000.0 nM
# [26] = biological target: Serine/threonine-protein kinase 32C (Homo sapiens) (UniProt Q86UX6); conditions: Compound concentration 1000.0 nM
# [27] = biological target: Dual specificity tyrosine-phosphorylation-regulated kinase 1A (Homo sapiens) (UniProt Q13627); conditions: Compound concentration 1000.0 nM
# [28] = system: Fibroblast growth factor receptor 3 (Homo sapiens), P22607 [G697C]; conditions: Compound concentration 1000.0 nM
# [29] = biological target: Phosphatidylinositol 4-kinase beta (Homo sapiens) (UniProt Q9UBF8); conditions: Compound concentration 1000.0 nM
# [30] = biological target: Mitogen-activated protein kinase 4 (Homo sapiens) (UniProt P31152); conditions: Compound concentration 1000.0 nM
# [31] = biological target: SRSF protein kinase 2 (Homo sapiens) (UniProt P78362); conditions: Compound concentration 1000.0 nM
# SRSF protein kinase 2 (Homo sapiens), sequence (P78362 whole entry, looked up): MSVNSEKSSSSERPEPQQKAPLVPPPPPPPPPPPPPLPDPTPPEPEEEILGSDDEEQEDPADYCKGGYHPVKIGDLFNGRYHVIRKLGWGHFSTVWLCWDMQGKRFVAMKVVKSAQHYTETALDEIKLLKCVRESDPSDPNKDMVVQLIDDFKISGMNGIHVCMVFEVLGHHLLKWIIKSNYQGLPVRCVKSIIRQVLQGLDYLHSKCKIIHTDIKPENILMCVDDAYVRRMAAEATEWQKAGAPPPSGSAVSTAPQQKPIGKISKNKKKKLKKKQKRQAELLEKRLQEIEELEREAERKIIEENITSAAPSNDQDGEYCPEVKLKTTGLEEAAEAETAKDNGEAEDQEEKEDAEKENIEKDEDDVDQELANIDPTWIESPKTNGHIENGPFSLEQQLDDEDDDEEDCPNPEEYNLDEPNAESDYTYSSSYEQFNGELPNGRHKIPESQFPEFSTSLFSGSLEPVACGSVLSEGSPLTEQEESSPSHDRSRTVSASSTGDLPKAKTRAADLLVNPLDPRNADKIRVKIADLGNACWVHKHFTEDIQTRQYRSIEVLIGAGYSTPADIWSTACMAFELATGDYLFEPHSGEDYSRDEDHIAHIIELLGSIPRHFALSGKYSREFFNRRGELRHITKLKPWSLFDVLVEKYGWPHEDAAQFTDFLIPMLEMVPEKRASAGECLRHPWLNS
# [32] = biological target: Bone morphogenetic protein receptor type-1B (Homo sapiens) (UniProt O00238); conditions: Compound concentration 1000.0 nM
# [33] = biological target: TGF-beta receptor type-1 (Homo sapiens) (UniProt P36897); conditions: Compound concentration 1000.0 nM
# [34] = biological target: Ephrin type-A receptor 2 (Homo sapiens) (UniProt P29317); conditions: Compound concentration 1000.0 nM
# [35] = biological target: D(1B) dopamine receptor (Homo sapiens) (UniProt P21918); conditions: Compound concentration 10.0 uM
# [36] = biological target: Mast/stem cell growth factor receptor Kit (Homo sapiens) (UniProt P10721); conditions: Compound concentration 1000.0 nM
# [37] = biological target: RAF proto-oncogene serine/threonine-protein kinase (Homo sapiens) (UniProt P04049); conditions: Compound concentration 1000.0 nM
# [38] = system: Phosphatidylinositol 4,5-bisphosphate 3-kinase catalytic subunit alpha isoform (Homo sapiens), P42336 [E545K]; conditions: Compound concentration 1000.0 nM
# [39] = biological target: BDNF/NT-3 growth factors receptor (Homo sapiens) (UniProt Q16620); conditions: Compound concentration 1000.0 nM
# BDNF/NT-3 growth factors receptor (Homo sapiens), sequence (Q16620 32-822 limits assumed): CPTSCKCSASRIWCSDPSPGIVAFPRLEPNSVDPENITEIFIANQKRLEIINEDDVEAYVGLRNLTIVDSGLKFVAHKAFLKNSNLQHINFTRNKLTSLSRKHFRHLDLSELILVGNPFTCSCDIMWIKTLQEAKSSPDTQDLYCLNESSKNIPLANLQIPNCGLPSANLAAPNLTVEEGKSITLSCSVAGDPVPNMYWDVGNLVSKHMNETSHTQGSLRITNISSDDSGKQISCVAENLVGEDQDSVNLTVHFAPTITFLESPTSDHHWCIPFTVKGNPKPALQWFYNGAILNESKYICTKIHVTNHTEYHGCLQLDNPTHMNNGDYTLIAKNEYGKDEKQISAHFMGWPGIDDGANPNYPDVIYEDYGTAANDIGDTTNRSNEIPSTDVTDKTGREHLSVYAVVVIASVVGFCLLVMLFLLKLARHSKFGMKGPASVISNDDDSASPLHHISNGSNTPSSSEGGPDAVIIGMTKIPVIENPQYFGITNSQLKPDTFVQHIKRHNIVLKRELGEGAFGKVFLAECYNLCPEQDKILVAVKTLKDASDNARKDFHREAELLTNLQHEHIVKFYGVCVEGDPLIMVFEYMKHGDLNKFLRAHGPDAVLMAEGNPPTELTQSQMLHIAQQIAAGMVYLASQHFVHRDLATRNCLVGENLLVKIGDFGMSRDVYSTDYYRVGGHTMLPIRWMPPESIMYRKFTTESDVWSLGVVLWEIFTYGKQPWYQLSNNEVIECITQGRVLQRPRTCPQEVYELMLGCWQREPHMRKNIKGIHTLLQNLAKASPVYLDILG
SMILES,residual activity [1] [%],residual activity [2] [%],residual activity [3] [%],residual activity [4] [%],residual activity [5] [%],residual activity [6] [%],residual activity [7] [%],residual activity [8] [%],residual activity [9] [%],residual activity [10] [%],residual activity [11] [%],residual activity [12] [%],residual activity [13] [%],residual activity [14] [%],residual activity [15] [%],residual activity [16] [%],residual activity [17] [%],residual activity [18] [%],residual activity [19] [%],inhibition [20] [%],also measured
O=C(Nc1cccnn1)N1CCC(=Cc2cccc(Oc3ccc(C(F)(F)F)cn3)c2)CC1,100,100,100,100,100,100,100,100,65,82,76,100,88,100,100,80,89,100,100,64.6,residual activity [21]: 74%; residual activity [22]: 87%; residual activity [23]: 100%; residual activity [24]: 98%; residual activity [25]: 74%; residual activity [26]: 100%; residual activity [27]: 100%; residual activity [28]: 100%; residual activity [29]: 100%; residual activity [30]: 95%; residual activity [31]: 100%; residual activity [32]: 88%; residual activity [33]: 61%; residual activity [34]: 81%; inhibition [35]: 29.3%; residual activity [36]: 81%; residual activity [37]: 63%; residual activity [38]: 100%; residual activity [39]: 100%
O=C(Nc1cccnn1)N1CC(C/C=C/c2cncc(Oc3ccc(C(F)(F)F)cn3)n2)C1,100,100,100,99,100,93,91,65,100,100,100,91,100,81,100,100,100,60,100,1.89,residual activity [21]: 100%; residual activity [22]: 100%; residual activity [23]: 84%; residual activity [24]: 100%; residual activity [25]: 100%; residual activity [26]: 100%; residual activity [27]: 75%; residual activity [28]: 100%; residual activity [29]: 91%; residual activity [30]: 100%; residual activity [31]: 100%; residual activity [32]: 91%; residual activity [33]: 100%; residual activity [34]: 100%; inhibition [35]: 4.5%; residual activity [36]: 80%; residual activity [37]: 100%; residual activity [38]: 81%; residual activity [39]: 77%
